Converted amounts (≈) assume the structure as drawn. Like-named read-outs stand apart in the source and are kept apart here.
Tests used:
S. mutans = assay: In vitro activity vs. miscellaneous Streptococcus strains, agar dilution, Mueller-Hinton agar (Table 9)
Staphylococcus aureus = assay: In vitro activity vs. Staphylococcus aureus strains, agar dilution, Mueller-Hinton agar (Table 6); assay type: cell-based
Peptococcus prevoti = assay: Susceptibility of anaerobic cocci isolates, agar dilution (Table 16); assay type: cell-based; details: 24 hr, A84575: 3 different lots
Source text: *MIC Determined by the AgarDilution Method, Endpoints Read After 24Hr.

Clostridium perfringens = assay: microbe, parasite or virus in culture; assay type: cell-based; details: 24 h
[1] = test system: Streptococcus sp. (Group D); assay: In vitro activity vs. Streptococcus sp. (Group D) strains, agar dilution, Mueller-Hinton agar (Table 8); assay type: cell-based
Peptococcus constellatus = assay: Susceptibility of anaerobic cocci isolates, agar dilution (Table 16); assay type: cell-based; details: Streptococcus constellatus, 24 h
Bacteroides fragilis = assay: Susceptibility of anaerobic bacterial isolates, agar dilution (Table 13); assay type: cell-based
Streptococcus pyogenes = assay: In vitro activity vs. Streptococcus pyogenes strains, agar dilution, Mueller-Hinton agar (Table 11)
S. sanguis = assay: In vitro activity vs. miscellaneous Streptococcus strains, agar dilution, Mueller-Hinton agar (Table 9)
Eubacterium aerofaciens = assay: Susceptibility of anaerobic bacterial isolates, agar dilution (Table 13); assay type: cell-based; details: Collinsella aerofaciens, 24 h
[2] = test system: Peptostreptococcus anaerobius; assay: Susceptibility of anaerobic cocci isolates, agar dilution (Table 16); assay type: cell-based; details: 24 h
Bacteroides vulgatis = assay: Susceptibility of anaerobic bacterial isolates, agar dilution (Table 13); assay type: cell-based; details: 24 h
Streptococcus pneumoniae = assay: In vitro activity vs. Streptococcus pneumoniae strains, agar dilution, Mueller-Hinton agar (Table 10)

Compound: CN[C@H](CC(C)C)C(=O)N[C@H]1C(=O)N[C@@H](CC(N)=O)C(=O)N[C@H]2C(=O)N[C@H]3C(=O)N[C@H](C(=O)N[C@H](C(=O)O)c4cc(O)cc(O)c4-c4cc3ccc4O)[C@H](O)c3ccc(c(Cl)c3)Oc3cc2cc(c3O[C@@H]2O[C@H](CO)[C@@H](O)[C@H](O)[C@H]2O[C@H]2C[C@](C)(N)[C@H](O)[C@H](C)O2)Oc2ccc(cc2Cl)[C@H]1O [Vancomycin]
- MIC (S. mutans; strain SM-1122): 1 µg/mL (≈ 0.69 µM)
- MIC (S. mutans; strain SM-1134): 2 µg/mL (≈ 1.38 µM)
- MIC (Staphylococcus aureus; strain 3055): 1 µg/mL (≈ 0.69 µM)
- MIC (Staphylococcus aureus; strain 3109): 1 µg/mL (≈ 0.69 µM)
- MIC (Staphylococcus aureus; strain 3110): 0.5 µg/mL (≈ 0.345 µM)
- MIC (Staphylococcus aureus; strain 3123): 1 µg/mL (≈ 0.69 µM)
- MIC (Staphylococcus aureus; strain 3128): 1 µg/mL (≈ 0.69 µM)
- MIC (Staphylococcus aureus; strain 3131, methicillin-resistant): 0.5 µg/mL (≈ 0.345 µM)
- MIC (Staphylococcus aureus; strain 3136): 1 µg/mL (≈ 0.69 µM)
- MIC (Staphylococcus aureus; strain 3484A, methicillin-resistant): 1 µg/mL (≈ 0.69 µM)
- MIC (Staphylococcus aureus; strain 25923): 2 µg/mL (≈ 1.38 µM)
- MIC (Staphylococcus aureus; strain #43, methicillin-resistant): 0.5 µg/mL (≈ 0.345 µM)
- MIC (Staphylococcus aureus; strain BGB #10, methicillin-resistant): 1 µg/mL (≈ 0.69 µM)
- MIC (Staphylococcus aureus; strain CVT#6, methicillin-resistant): 0.5 µg/mL (≈ 0.345 µM)
- MIC (Staphylococcus aureus; strain DUTT, methicillin-resistant): 0.5 µg/mL (≈ 0.345 µM)
- MIC (Staphylococcus aureus; strain H290): 1 µg/mL (≈ 0.69 µM)
- MIC (Staphylococcus aureus; strain H535): 0.5 µg/mL (≈ 0.345 µM)
- MIC (Staphylococcus aureus; strain ID-VI #1, methicillin-resistant): 0.5 µg/mL (≈ 0.345 µM)
- MIC (Staphylococcus aureus; strain Seattle 973, methicillin-resistant): 0.5 µg/mL (≈ 0.345 µM)
- MIC (Staphylococcus aureus; strain V92): 0.5 µg/mL (≈ 0.345 µM)
- MIC (Peptococcus prevoti; strain 1281, read-out: MIC): 2 µg/mL (≈ 1.38 µM)
- MIC (Peptococcus prevoti; strain 1293): 2 µg/mL (≈ 1.38 µM)
- MIC (Peptococcus prevoti; strain 1407): 2 µg/mL (≈ 1.38 µM)
- MIC (Clostridium perfringens): 1 µg/mL (≈ 0.69 µM)
- MIC ([1]; strain 282): 1 µg/mL (≈ 0.69 µM)
- MIC ([1]; strain 8043): 1 µg/mL (≈ 0.69 µM)
- MIC ([1]; strain 9901): 2 µg/mL (≈ 1.38 µM)
- MIC ([1]; strain 9913): 1 µg/mL (≈ 0.69 µM)
- MIC ([1]; strain 9933 Beta): 4 µg/mL (≈ 2.76 µM)
- MIC ([1]; strain 9960): 4 µg/mL (≈ 2.76 µM)
- MIC ([1]; strain 12253F): 1 µg/mL (≈ 0.69 µM)
- MIC ([1]; strain 22521): 4 µg/mL (≈ 2.76 µM)
- MIC ([1]; strain M10): 4 µg/mL (≈ 2.76 µM)
- MIC ([1]; strain M11): 1 µg/mL (≈ 0.69 µM)
- MIC ([1]; strain M12): 4 µg/mL (≈ 2.76 µM)
- MIC ([1]; strain M13): 2 µg/mL (≈ 1.38 µM)
- MIC ([1]; strain M20): 1 µg/mL (≈ 0.69 µM)
- MIC ([1]; strain M21): 4 µg/mL (≈ 2.76 µM)
- MIC ([1]; strain M28): 4 µg/mL (≈ 2.76 µM)
- MIC ([1]; strain M36): 4 µg/mL (≈ 2.76 µM)
- MIC ([1]; strain M38): 1 µg/mL (≈ 0.69 µM)
- MIC ([1]; strain Shrigley): 2 µg/mL (≈ 1.38 µM)
- MIC ([1]; strain Van Almen): 4 µg/mL (≈ 2.76 µM)
- MIC ([1]; strain Vietnam): 2 µg/mL (≈ 1.38 µM)
- MIC (Peptococcus constellatus): 1 µg/mL (≈ 0.69 µM)
- MIC (Bacteroides fragilis; Bacteroides fragilis, 24 h): 16 µg/mL (≈ 11 µM)
- MIC (Bacteroides fragilis; strain 1877, 24 hr, A84575: 3 different lots): 16 µg/mL (≈ 11 µM)
- MIC (Bacteroides fragilis; strain 1936B, 24 hr, A84575: 3 different lots): 16 µg/mL (≈ 11 µM)
- MIC (Streptococcus pyogenes; ATCC12344, strain ATCC 12344): 1 µg/mL (≈ 0.69 µM)
- MIC (Streptococcus pyogenes; strain 9931): 0.5 µg/mL (≈ 0.345 µM)
- MIC (Streptococcus pyogenes; strain 10389): 0.5 µg/mL (≈ 0.345 µM)
- MIC (Streptococcus pyogenes; strain 12385): 2 µg/mL (≈ 1.38 µM)
- MIC (Streptococcus pyogenes; strain 12961): 1 µg/mL (≈ 0.69 µM)
- MIC (Streptococcus pyogenes; strain C203): 1 µg/mL (≈ 0.69 µM)
- MIC (Streptococcus pyogenes; strain DS663-72): 0.5 µg/mL (≈ 0.345 µM)
- MIC (Streptococcus pyogenes; strain HB93): 1 µg/mL (≈ 0.69 µM)
- MIC (Streptococcus pyogenes; strain K-1): 0.5 µg/mL (≈ 0.345 µM)
- MIC (Streptococcus pyogenes; strain K-2): 0.5 µg/mL (≈ 0.345 µM)
- MIC (Streptococcus pyogenes; strain K-3): 0.5 µg/mL (≈ 0.345 µM)
- MIC (Streptococcus pyogenes; strain K-4): 1 µg/mL (≈ 0.69 µM)
- MIC (Streptococcus pyogenes; strain K-5): 1 µg/mL (≈ 0.69 µM)
- MIC (Streptococcus pyogenes; strain K-6): 0.5 µg/mL (≈ 0.345 µM)
- MIC (S. sanguis; strain I-SSI-547): 0.5 µg/mL (≈ 0.345 µM)
- MIC (S. sanguis; strain I-SSI-910): 0.5 µg/mL (≈ 0.345 µM)
- MIC (S. sanguis; strain II-SSII-895): 0.5 µg/mL (≈ 0.345 µM)
- MIC (S. sanguis; strain II-SSII-911): 1 µg/mL (≈ 0.69 µM)
- MIC (Eubacterium aerofaciens): 8 µg/mL (≈ 5.52 µM)
- MIC ([2]; strain 8, A84575: 3 different lots): 1 µg/mL (≈ 0.69 µM)
- MIC ([2]; strain 52, A84575: 3 different lots): 1 µg/mL (≈ 0.69 µM)
- MIC ([2]; strain 59, A84575: 3 different lots): 0.25 µg/mL (≈ 0.173 µM)
- MIC ([2]; strain 1428, A84575: 3 different lots): 0.03 µg/mL (≈ 0.0207 µM)
- MIC ([2]; strain 1451, A84575: 3 different lots): 2 µg/mL (≈ 1.38 µM)
- MIC ([2]; strain 1477, A84575: 3 different lots): 2 µg/mL (≈ 1.38 µM)
- MIC (Bacteroides vulgatis): 8 µg/mL (≈ 5.52 µM)
- MIC (Streptococcus pneumoniae; ATCC6301, strain ATCC 6301): 4 µg/mL (≈ 2.76 µM)
- MIC (Streptococcus pneumoniae; strain 97P): 0.25 µg/mL (≈ 0.173 µM)
- MIC (Streptococcus pneumoniae; strain 2764): 0.25 µg/mL (≈ 0.173 µM)
- MIC (Streptococcus pneumoniae; strain BI5): 0.5 µg/mL (≈ 0.345 µM)
- MIC (Streptococcus pneumoniae; strain BI343): 0.25 µg/mL (≈ 0.173 µM)
- MIC (Streptococcus pneumoniae; strain BI348): 0.25 µg/mL (≈ 0.173 µM)
- MIC (Streptococcus pneumoniae; strain BI374): 4 µg/mL (≈ 2.76 µM)
- MIC (Streptococcus pneumoniae; strain BI508): 0.5 µg/mL (≈ 0.345 µM)
- MIC (Streptococcus pneumoniae; strain BI180351): 0.25 µg/mL (≈ 0.173 µM)
- MIC (Streptococcus pneumoniae; strain BI-492): 0.5 µg/mL (≈ 0.345 µM)
- MIC (Streptococcus pneumoniae; strain HZ-4-2): 0.25 µg/mL (≈ 0.173 µM)
- MIC (Streptococcus pneumoniae; strain M11-1-H7): 0.5 µg/mL (≈ 0.345 µM)
- MIC (Streptococcus pneumoniae; strain M11-1-H10): 0.25 µg/mL (≈ 0.173 µM)
- MIC (Streptococcus pneumoniae; strain M11-Z-Al): 0.25 µg/mL (≈ 0.173 µM)
- MIC (Streptococcus pneumoniae; strain Park I): 0.5 µg/mL (≈ 0.345 µM)
